Data from article PMC9367663 (Journal of Enzyme Inhibition and Medicinal Chemistry, 2022).
Read-outs that look alike come from different tables or passages of the source.

Test system: VSV*ΔG(Luc)-S virus harbouring the spike from the D614G variant
Type: cell-based, SARS-CoV-2

In the case of On1ccccc1=S [a, 1-hydroxy-2(1H)-pyridinethione], the “inhibition of viral entry” value (0.5 µM) is reported as 15.33%, the “inhibition of viral entry” value (1 µM) is reported as 16.67% and the “inhibition of viral entry” value (10 µM) is reported as 74.34%. The “inhibition of viral entry” value (30 µM) was 86.41% and the IC50 (read-out: IC50 viral entry) was 5.19 µM.
